Holding throughout (assay): relative viability (nuclei count vs DMSO), 5 days (fraction); higher = more cells survive
Compound in test [1]: CC1=C(C(=NN1)C)CC2=C(C3=C(S2)N(C(=O)N(C3=O)C)CC(C)C)C(=O)N4C[C@@H](CO4)O + COc1cc2c(Oc3ccc(NC(=O)C4(C(=O)Nc5ccc(F)cc5)CC4)cc3F)ccnc2cc1OCCCN1CCOCC1 [Foretinib] (partner 0.25 µM)
The method, boiled down: (§1)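 Dosing by pin tool came one day after lung cancer cell lines were seeded in 1536-well plates, using either one drug or a fixed anchor-drug dose plus five library-drug doses (not always all listed) in √10 steps. After 5 days, nuclei were counted on 4× images. Relative viability is treated-well nuclei count divided by vehicle-well nuclei count, and values are medians of duplicate plates.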

Compound in the test “IDH-C35 + Palbociclib”: Cc1ccccc1C(C(=O)NC1CCCCC1)N(C(=O)Cn1ccnc1C)c1cccc(F)c1 [IDH-C35] + CC(=O)c1c(C)c2cnc(Nc3ccc(N4CCNCC4)cn3)nc2n(C2CCCC2)c1=O [Palbociclib] (partner 0.5 µM)
Summed up: as §1

Compound in test [2]: CC1=C(C(=NN1)C)CC2=C(C3=C(S2)N(C(=O)N(C3=O)C)CC(C)C)C(=O)N4C[C@@H](CO4)O
The method, boiled down:
(§2)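 Acceptance criteria were a control CV below 25% and at least one doubling per plate. Lung cancer cell lines in 1536-well plates got five library-drug doses (not always all listed) √10 apart by pinning and were left 5 days with no medium change. Viability divides treated-well nuclei by vehicle-well nuclei and is the median across plates. Nuclei were counted by MetaXpress from 4× Hoechst images.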

Compound in the next test: Cc1ccccc1C(C(=O)NC1CCCCC1)N(C(=O)Cn1ccnc1C)c1cccc(F)c1 [IDH-C35]
The method, boiled down: as §2

Here are results for one cell line from the supplement of paper PMC10307832.

As to UMC-11, the relative viability was 1.16 in test [1] (first compound 0.0025 µM); 1.17 in test [1] (first compound 0.007906 µM); 0.997 in test [1] (first compound 0.025 µM); 1.07 in test [1] (first compound 0.07906 µM); 1.08 in test [1] (first compound 0.25 µM); 0.335 in the test with IDH-C35 + Palbociclib (first compound 0.08 µM). In addition, the relative viability in the test with IDH-C35 + Palbociclib (first compound 0.253 µM) was 0.32; with IDH-C35 + Palbociclib (first compound 0.8 µM), 0.341; with IDH-C35 + Palbociclib (first compound 2.53 µM), 0.299; in the test with IDH-C35 + Palbociclib (first compound 8 µM) it was 0.337; in test [2] (0.0025 µM) it was 1.08; in test [2] (0.007906 µM), 1.04. Also, the relative viability came to 0.974 in test [2] (0.025 µM); 0.993 in test [2] (0.07906 µM); 1.18 in test [2] (0.25 µM); 1.03 with IDH-C35 (0.08 µM); 0.975 with IDH-C35 (0.253 µM); 0.986 in the test with IDH-C35 (0.8 µM). In addition, the relative viability with IDH-C35 (2.53 µM) turned out to be 0.951; with IDH-C35 (8 µM) it was 1.02.
